Assays:
Assay in all cases: NCI 60 cell line single dose screen (SRB)
Assay type in all cases: cell-based
A498 = details: Homo sapiens; A498 (renal cancer), single dose 10^−5 M, 48 h; read-out: Growth inhibition percentage
Summary of the method: (§1)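 Cells were plated and grown 24 h at 37 °C, 5% CO2 before compound addition from DMSO stock, then exposed 48 h. Adherent cells were fixed with cold TCA (final 10%) and suspension cells with 16% TCA. SRB-stained protein was read at 515 nm and percent growth was calculated against time-zero and untreated plates.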

A549/ATCC = details: Homo sapiens; A549/ATCC (non-small cell lung cancer), single dose 10^−5 M, 48 h; read-out: Growth inhibition percentage
Summary of the method: as §1

COLO 205 = details: Homo sapiens, COLO 205, 48 h; read-out: Growth inhibition percentage
Summary of the method: as §1

DU-145 = details: Homo sapiens; DU-145 (prostate cancer), single dose 10^−5 M, 48 h; read-out: Growth inhibition percentage
Summary of the method: as §1

EKVX = details: Homo sapiens; EKVX (non-small cell lung cancer), single dose 10^−5 M, 48 h; read-out: Growth inhibition percentage
Summary of the method: as §1

HCC-2998 = details: Homo sapiens; HCC-2998 (colon cancer), single dose 10^−5 M, 48 h; read-out: Growth inhibition percentage
Summary of the method: as §1

IGROV1 = details: Homo sapiens, IGROV-1; IGROV1 (ovarian cancer), single dose 10^−5 M, 48 h; read-out: Growth inhibition percentage
Summary of the method: as §1

KM12 = details: Homo sapiens; KM12 (colon cancer), single dose 10^−5 M, 48 h; read-out: Growth inhibition percentage
Summary of the method: as §1

LOX IMVI = details: Homo sapiens; LOX IMVI (melanoma), single dose 10^−5 M, 48 h; read-out: Growth inhibition percentage
Summary of the method: as §1

MCF7 = details: Homo sapiens; MCF7 (breast cancer), single dose 10^−5 M, 48 h; read-out: Growth inhibition percentage
Summary of the method: as §1

NCI-H23 = details: Homo sapiens; NCI-H23 (non-small cell lung cancer), single dose 10^−5 M, 48 h; read-out: Growth inhibition percentage
Summary of the method: as §1

NCI-H322M = details: Homo sapiens; NCI-H322M (non-small cell lung cancer), single dose 10^−5 M, 48 h; read-out: Growth inhibition percentage
Summary of the method: as §1

OVCAR-3 = details: Homo sapiens; OVCAR-3 (ovarian cancer), single dose 10^−5 M, 48 h; read-out: Growth inhibition percentage
Summary of the method: as §1

OVCAR-4 = details: Homo sapiens; OVCAR-4 (ovarian cancer), single dose 10^−5 M, 48 h; read-out: Growth inhibition percentage
Summary of the method: as §1

OVCAR-5 = details: Homo sapiens; OVCAR-5 (ovarian cancer), single dose 10^−5 M, 48 h; read-out: Growth inhibition percentage
Summary of the method: as §1

OVCAR-8 = details: Homo sapiens; OVCAR-8 (ovarian cancer), single dose 10^−5 M, 48 h; read-out: Growth inhibition percentage
Summary of the method: as §1

PC-3 = details: Homo sapiens; PC-3 (prostate cancer), single dose 10^−5 M, 48 h; read-out: Growth inhibition percentage
Summary of the method: as §1

SF-268 = details: Homo sapiens; SF-268 (CNS cancer), single dose 10^−5 M, 48 h; read-out: Growth inhibition percentage
Summary of the method: as §1

SF-593 = details: Homo sapiens, SF-593 (CNS cancer), single dose 10^−5 M, 48 h, read-out: Growth inhibition percentage
Summary of the method: as §1

SK-MEL-28 = details: Homo sapiens; SK-MEL-28 (melanoma), single dose 10^−5 M, 48 h; read-out: Growth inhibition percentage
Summary of the method: as §1

U251 = details: Homo sapiens, U-251; U251 (CNS cancer), single dose 10^−5 M, 48 h; read-out: Growth inhibition percentage
Summary of the method: as §1

SMILES	inhibition at 10 µM (A498)	inhibition at 10 µM (A549/ATCC)	inhibition at 10 µM (COLO 205)	inhibition at 10 µM (DU-145)	inhibition at 10 µM (EKVX)	inhibition at 10 µM (HCC-2998)	inhibition at 10 µM (IGROV1)	inhibition at 10 µM (KM12)	inhibition at 10 µM (LOX IMVI)	inhibition at 10 µM (MCF7)	inhibition at 10 µM (NCI-H23)	inhibition at 10 µM (NCI-H322M)	inhibition at 10 µM (OVCAR-3)	inhibition at 10 µM (OVCAR-4)	inhibition at 10 µM (OVCAR-5)	inhibition at 10 µM (OVCAR-8)	inhibition at 10 µM (PC-3)	inhibition at 10 µM (SF-268)	inhibition at 10 µM (SF-593)	inhibition at 10 µM (SK-MEL-28)	further results
Cc1nn(-c2ccc(F)cc2)c2nc(N)nc(N)c12 [Compound 5, 1–(4-Fluorophenyl)-3-methyl-1H-pyrazolo[3,4-d]pyrimidine-4,6-diamine]	-3.11%	-1.96%	-13.5%	-9.51%	6.25%	3.79%	6.71%	1.24%	2.19%	0.73%	11.8%	8.14%	-12.9%	1.28%	-1.61%	-7.15%	3.59%	-2.3%	2.81%	-4.89%	inhibition at 10 µM (U251): -6.63%
COc1cc(C=NNc2ncnc3c2c(C)nn3-c2ccc(F)cc2)ccc1O [Compound 10b, 1–(4-Fluorophenyl)-4–(2-(4-hydroxy-3-methoxybenzylidene)-hydrazinyl)-3-methyl-1H-pyrazolo[3,4-d]pyrimidine]	-3.34%	2.36%	-4.39%	12.4%	12.4%	0.27%	20.6%	28.1%	19%	14.7%	9.39%	14.4%	24.2%	9.65%	-30.9%	3.64%	27%	29%	3.85%	-7.04%	inhibition at 10 µM (U251): 5.64%
COc1ccc(N2CCN(c3ncnc4c3c(C)nn4-c3ccc(F)cc3)CC2)cc1 [Compound 8d, 1–(4-Fluorophenyl)-4–(4-(4-methoxyphenyl)piperazin-1-yl)-3-methyl-1H-pyrazolo[3,4-d]pyrimidine]	-0.85%	-4.08%	-7.56%	-11.2%	7.21%	3.59%	9.45%	0.4%	0.28%	1.6%	9.95%	1.5%	-8.47%	-1.77%	-7.96%	1.33%	12.5%	-2.9%	8.43%	-8.74%	inhibition at 10 µM (U251): -2.5%
Cc1nn(-c2ccc(F)cc2)c2ncnc(NN)c12 [Compound 9, 1–(4-Fluorophenyl)-4-hydrazinyl-3-methyl-1H-pyrazolo[3,4-d]-pyrimidine]	1.48%	-5.98%	-11.7%	-0.84%	17%	5.1%	23.5%	3.79%	13.3%	11.5%	19.1%	23.9%	32.2%	17.8%	-7.64%	1.29%	13.8%	25.6%	-0.7%	2.1%	inhibition at 10 µM (U251): 9.85%
Cc1nn(-c2ccc(F)cc2)c2ncnc(N3CCOCC3)c12 [Compound 8a, 1–(4-Fluorophenyl)-3-methyl-4-morpholino-1H-pyrazolo[3,4-d]pyrimidine]	4.93%	-0.09%	-7.19%	-7.7%	19.5%	2.41%	-3.29%	0.04%	-2.33%	9.07%	0.28%	5.51%	-5.65%	-10.7%	-3.95%	-5.87%	5.06%	-0.79%	-8.46%	-12.6%	inhibition at 10 µM (U251): -1.7%
Cc1nn(-c2ccc(F)cc2)c2ncnc(Cl)c12 [Compound 6, 4-Chloro-1–(4-fluorophenyl)-3-methyl-1H-pyrazolo[3,4-d]pyrimidine]	4.71%	11.6%	-14.9%	3.05%	9.08%	-5.66%	24.4%	0.99%	6.64%	11.6%	7.86%	5.32%	-8.39%	-0.8%	-12.3%	6.34%	14.8%	-1.16%	-7.81%	-4.92%	inhibition at 10 µM (U251): 5.15%
Cc1ccc(Nc2ncnc3c2c(C)nn3-c2ccc(F)cc2)cc1 [Compound 7c, 1–(4-Fluorophenyl)-3-methyl-N-(p-tolyl)-1H-pyrazolo[3,4-d]-pyrimidin-4-amine]	5.97%	3.08%	-13.3%	-8.97%	3.39%	1.34%	1.54%	-1.11%	-0.99%	6.19%	4.63%	10%	-6.58%	-3.91%	-0.5%	2.02%	7.23%	1.06%	-1.94%	-11.1%	inhibition at 10 µM (U251): 2.65%
Cc1nn(-c2ccc(F)cc2)c2ncnc(N3CCN(c4ccc(Cl)cc4)CC3)c12 [Compound 8c, 4–(4-(4-Chlorophenyl)piperazin-1-yl)-1–(4-fluorophenyl)-3-methyl-1H-pyrazolo[3,4-d]pyrimidine]	9.66%	-3.31%	-1.97%	-5.88%	20.6%	3.74%	25.6%	2.24%	4.93%	3.1%	20.7%	3.9%	1.21%	-1.9%	-2.91%	3.66%	11.3%	4.51%	3.89%	-3.74%	inhibition at 10 µM (U251): -0.06%
